The target in this test is T1, PIM-1 kinase (Homo sapiens, UniProt P11309).
T1 construct: purchased Millipore 14-573
The test can be described thus: PIM Kinase Activity Assay-IMAP Fluorescence Polarization Assay (PIM-1). The class given is biochemical. To be noted: 3 μM concentration. How it is done:
In the present invention, the PIM activities of the compounds were tested by BioDuro (Building E, No. 29 Life Science Park Road, Changping District, Beijing, 102206, P.R. China). The method used for testing is PIM Kinase Activity Assay-IMAP Fluorescence Polarization Assay PIM Kinase Activity Assay-IMAP Fluorescence Polarization Assay 1. Principle PIM kinases are serine/threonine protein kinases, and they can phosphorylate 5-FAM labeled small peptide substrates. Fluorescence polarization is less for non-phosphorylated substrates since that can not bind to the binder (metal binding nanoparticles). On the other hand, fluorescence polarization is more for phosphorylated substrates since that can bind to the binder. The level of 5-FAM labeled small peptide substrates phosphorylation reflects the activities of PIM kinase. By measuring their ability of inhibiting PIM kinase of the compounds of the present invention, their activities of inhibiting PIM kinases can be determined 2. Instrument EnVision (PerkinElmer, Waltham, Mass.) 3. Reagents and 384 well plates PIM1 (Millipore Cat. #14-573) (Millipore Corporation, Billerica, Mass.) PIM2 (Millipore Cat. #14-607) (Millipore Corporation, Billerica, Mass.) 5-FAM labeled peptide (5-FAM-RSRHSSYPAGT, AnaSpec Cat. #63801) (AnaSpec Inc., Fremont, Calif.) IMAP FP Screening Express kit (IMAP FP Screening kit) (Molecular Devices Cat. #R8127) (Molecular Devices, Sunnyvale, Calif.) IMAP Progressive binding reagent IMAP Progressive binding buffer A (5×) IMAP Progressive binding buffer B (5×) 384-well black plate (Corning Cat. #3573) (Corning, Midland Mich.) 4. Assay Buffer
a) 10 mM compound stock solution is diluted to appropriate concentration with 100% DMSO, then diluted 10 fold to targeted concentration with test butter to keep DMSO concentration at 10%
1 ul of compound solution and 4 ul of enzyme (PIM-1 final concentration 0.025 nM, PIM-2 concentration 3 nM) is incubated at 23° C. for 15 min, 2.5 ul ATP (for PIM-1 and PIM-2, the final ATP concentrations are 30 uM and 5 uM respectively) 2.5 ul 5-FAM labeled peptide (final concentration 100 nM) was added to start the reaction. The reaction is run at 23° C. for 60 min DMSO is used in place of compound stock solution as maximum reference and assay buffer is used in place of enzyme as minimum reference. c) add 30 ul IMAP binding reagent (containing 75% IMAP Buffer A, 25% IMAP Buffer B, 1/600 dilution of beads) to stop the reaction, incubated at room temperature for 60 min d) Measure fluorescence polarization, excitation wavelength: 485 nm, emission wavelength 530 nm. 6. Data process IC50 values were calculated using Graphpad Prism®.

Structures are written as SMILES.

T1 sequence (P11309 whole entry): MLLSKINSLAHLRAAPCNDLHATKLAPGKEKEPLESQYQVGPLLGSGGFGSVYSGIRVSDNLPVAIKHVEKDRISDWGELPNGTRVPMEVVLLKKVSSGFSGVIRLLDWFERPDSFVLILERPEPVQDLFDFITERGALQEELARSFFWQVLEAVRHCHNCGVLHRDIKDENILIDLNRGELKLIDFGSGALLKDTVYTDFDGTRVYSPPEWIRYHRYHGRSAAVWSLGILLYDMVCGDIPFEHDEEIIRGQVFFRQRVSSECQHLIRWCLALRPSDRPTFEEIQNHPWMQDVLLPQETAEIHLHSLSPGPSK

As for `CC(=O)Nc1nc(C(=O)Nc2cnsc2N2CCNCC2)cs1` [Compound 39, 2-acetamido-N-(5-(piperazin-1-yl)isothiazol-4-yl)thiazole-4-carboxamide], the inhibition (commonly the change of the read-out against control, counted positive when it falls) at 3 µM fell in the range of 20 to 50%.
Then `O=C(Nc1cnsc1N1CCNCC1)c1cc(-c2ccccc2F)n[nH]1` [Compound 42, 3-(2-fluorophenyl)-N-(5-(piperazin-1-yl)isothiazol-4-yl)-1H-pyrazole-5-carboxamide], with 20 to 50%; and `CC(C)(C)OC(=O)N1CCC(c2nc(C(=O)Nc3cnsc3N3CCOCC3)cs2)CC1` [Compound 25, tert-butyl 4-(4-((5-morpholinoisothiazol-4-yl)carbamoyl)thiazol-2-yl)piperidine-1-carboxylate], with 20 to 50%.
In turn, `O=C(Nc1cnsc1N1CCOCC1)c1csc(C2CCNCC2)n1` [Compound 26, N-(5-morpholinoisothiazol-4-yl)-2-(piperidin-4-yl)thiazole-4-carboxamide] displayed an inhibition at 3 µM of 20 to 50%.
For `O=C(Nc1cnsc1N1CCNCC1)c1csc(N2CCOCC2)n1` [Compound 36, 2-morpholino-N-(5-(piperazin-1-yl)isothiazol-4-yl)thiazole-4-carboxamide], the inhibition at 3 µM fell in the range of 20 to 50%.
`Cc1cc(C(=O)Nc2cnsc2N2CCNCC2)nn1-c1ccccc1F` [Compound 41, 1-(2-fluorophenyl)-5-methyl-N-(5-(piperazin-1-yl)isothiazol-4-yl)-1H-pyrazole-3-carboxamide] returned an inhibition at 3 µM of 20 to 50%.
On to `O=C(Nc1cnsc1N1CCNCC1)c1csc(C2COc3ccccc3O2)n1` (stereo not shown) [Compound 40, 2-(2,3-dihydrobenzo[b][1,4]dioxin-2-yl)-N-(5-(piperazin-1-yl)isothiazol-4-yl)thiazole-4-carboxamide], for which the inhibition at 3 µM was in the range of 20 to 50%.
For `O=C(Nc1cnsc1N1CCOCC1)c1csc(C2COc3ccccc3O2)n1` (stereo not shown) [Compound 28, 2-(2,3-dihydrobenzo[b][1,4]dioxin-2-yl)-N-(5-morpholinoisothiazol-4-yl)thiazole-4-carboxamide], the inhibition at 3 µM lay in the range of 20 to 50%.
Then `O=C(Nc1cnsc1N1CCc2c(O)cccc2C1)c1cccc(-c2c(F)cccc2F)n1` [Compound 52, 6-(2,6-difluorophenyl)-N-(5-(5-hydroxy-3,4-dihydroisoquinolin-2(1H)-yl)isothiazol-4-yl)picolinamide], with 20 to 50%; and `O=C(Nc1cnsc1N1CCNCC1)c1coc(-c2ccccc2)n1` [Compound 43, 2-phenyl-N-(5-(piperazin-1-yl)isothiazol-4-yl)oxazole-4-carboxamide], with 20 to 50%.

The values are drawn from US8969584B2, “PIM kinase inhibitors and preparation methods and use in medicinal manufacture thereof” (Jikai Biosciences, Inc., priority 2011, dated 2015).
